{"source": "paper PMC12080252", "about": "“Daphnia magna as an Alternative Model for (Simultaneous) Bioaccumulation and Chronic Toxicity Assessment—Controlled Exposure Study Indicates High Hazard of Heterocyclic PAHs” (Environmental Science & Technology, 2025)", "key": {"[1]": {"experiment": "Chronic reproduction toxicity test (OECD 211) with passive dosing", "type": "in vivo, Daphnia magna", "conditions": "Daphnia magna, in vivo, other: waterborne exposure by passive dosing from PDMS disks, 21-day test, read-out: % offspring mortality of total offspring", "outline": "(§1)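 D. magna juveniles (<24 h) exposed individually 21 days by passive dosing from PDMS disks, static, 20 °C, 16:8 h light/dark, medium renewed three times weekly, fed daily; water concentrations measured initially and before renewal. Offspring per mother versus controls gave percent inhibition; EC10/EC20/EC50 from four-parameter logistic fit of log10 concentrations (Top 100, Bottom 0).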"}, "Daphnia magna": {"tested_on": "Daphnia magna", "experiment": "Chronic reproduction toxicity test (OECD 211) with passive dosing", "type": "in vivo", "conditions": "for Total #dead offspring per mother (per vessel) / Total #offspring per mother (per vessel) / % inhibition (per vessel): individual vessels; for EC10: 21-day reproduction inhibition; for wet weight of parent daphnids, change relative to control: end of 21-d exposure; for % inhibition, avr. / % inhibition (per vessel): reproduction vs controls", "outline": "as §1"}, "D. magna [2]": {"tested_on": "D. magna", "experiment": "PNEC and risk quotient estimation", "set-up": "species or system Daphnia magna", "conditions": "environmental concentration of surrogate (CRB, DBF, DBT) / PNEC", "excerpt": "To ensure a precautionary approach, an AF of 100 was applied, which accounts for interspecies variability and uncertainties in extrapolating laboratory findings to real-world conditions.\nEnvironmental concentration (EC) data are obtained from A CRB, B DBF, and C DBT by choosing the highest\nconcentration that remains below the solubility limit of the respective NSO-PAH, as described in Reference 24."}, "[3]": {"conditions": "cited from earlier work"}, "D. magna [4]": {"tested_on": "D. magna", "conditions": "acute test, at water solubility; cited from earlier work"}}, "note": "“And” between values parts separate entries of the source, which are not always exact repeats. Equal entries are not always repeated."}
{"smiles": "c1ccc2c(c1)ccc1sc3ccccc3c12", "note": "[BNT, benzo[b]naphtho[1,2-d]thiophene]", "values": [{"measurement": "mortality at 21 days, 0.07 µg/L", "setting": "[1]; 0.07 µg/L (Fig. S8)", "value": 1.8, "unit": "%"}, {"measurement": "mortality at 21 days, 0.25 µg/L", "setting": "[1]; 0.25 µg/L (Fig. S8)", "value": 11.1, "unit": "%"}, {"measurement": "mortality at 21 days, 0.38 µg/L", "setting": "[1]; 0.38 µg/L (Fig. S8)", "value": 11.7, "unit": "%"}, {"measurement": "mortality at 21 days, 0.81 µg/L", "setting": "[1]; 0.81 µg/L (Fig. S8)", "value": 14.8, "unit": "%"}, {"measurement": "mortality at 21 days, 1.94 µg/L", "setting": "[1]; 1.94 µg/L (Fig. S8)", "value": 14.2, "unit": "%"}, {"measurement": "mortality at 21 days, 4.63 µg/L", "setting": "[1]; 4.63 µg/L (Fig. S8)", "value": 20.8, "unit": "%"}, {"measurement": "mortality at 21 days, 12 µg/L", "setting": "[1]; 12.00 µg/L (Fig. S8)", "value": 28, "unit": "%"}, {"measurement": "#average live offspring", "setting": "Daphnia magna; 0.07 µg/L, 21 days", "value": 67}, {"measurement": "%offspring mortality", "setting": "Daphnia magna; 0.07 µg/L, 21 days", "value": 1.76, "unit": "%"}, {"measurement": "#total live offspring", "setting": "Daphnia magna; 0.07 µg/L, 21 days, all vessels without outlier", "value": 334}, {"measurement": "Total #dead offspring per mother (per vessel)", "setting": "Daphnia magna; 0.07 µg/L, 21 days", "value": "0 and 2"}, {"measurement": "#average live offspring", "setting": "Daphnia magna; 0.25 µg/L, 21 days", "value": 67}, {"measurement": "%offspring mortality", "setting": "Daphnia magna; 0.25 µg/L, 21 days", "value": 11.09, "unit": "%"}, {"measurement": "#total live offspring", "setting": "Daphnia magna; 0.25 µg/L, 21 days, all vessels", "value": 401}, {"measurement": "Total #dead offspring per mother (per vessel)", "setting": "Daphnia magna; 0.25 µg/L, 21 days", "value": "8 and 14 and 9 and 6 and 5"}, {"measurement": "#average live offspring", "setting": "Daphnia magna; 0.38 µg/L, 21 days", "value": 62}, {"measurement": "%offspring mortality", "setting": "Daphnia magna; 0.38 µg/L, 21 days", "value": 11.71, "unit": "%"}, {"measurement": "#total live offspring", "setting": "Daphnia magna; 0.38 µg/L, 21 days, all vessels without vessel 2 (X)", "value": 309}, {"measurement": "Total #dead offspring per mother (per vessel)", "setting": "Daphnia magna; 0.38 µg/L, 21 days", "value": "9 and 16 and 10 and 5 and 1"}, {"measurement": "#average live offspring", "setting": "Daphnia magna; 0.81 µg/L, 21 days", "value": 52}, {"measurement": "%offspring mortality", "setting": "Daphnia magna; 0.81 µg/L, 21 days", "value": 14.75, "unit": "%"}, {"measurement": "#total live offspring", "setting": "Daphnia magna; 0.81 µg/L, 21 days, all vessels", "value": 312}, {"measurement": "Total #dead offspring per mother (per vessel)", "setting": "Daphnia magna; 0.81 µg/L, 21 days", "value": "10 and 9 and 3 and 24 and 5"}, {"measurement": "EC10", "setting": "Daphnia magna; 97.5-2.5% confidence interval in brackets", "value": "0.33 (0.12-0.73) μg L^-1"}, {"measurement": "EC10", "setting": "Daphnia magna; confidence interval in brackets", "value": "1.40 (0.49-3.10) nmol L^-1"}, {"measurement": "growth of parent D. magna (wet weight)", "setting": "Daphnia magna; 21-day test, p-value <0.05", "value": "significantly inhibited D. magna growth"}, {"measurement": "LOEC (lowest observed effect concentration, reproduction inhibition)", "setting": "Daphnia magna; 21 days, p-value <0.05 vs controls", "value": 0.8, "unit": "μg L^–1"}, {"measurement": "Total #offspring per mother (per vessel)", "setting": "Daphnia magna; BNT avr. medium concentration 0.25 µg/L (methanol dosing 0.063 g/L), 21 days", "value": "81 and 73 and 58 and 64 and 61"}, {"measurement": "Total #offspring per mother (per vessel)", "setting": "Daphnia magna; BNT avr. medium concentration 0.38 µg/L (methanol dosing 0.125 g/L), 21 days", "value": "66 and 55 and 82 and 54 and 52"}, {"measurement": "Total #offspring per mother (per vessel)", "setting": "Daphnia magna; BNT avr. medium concentration 0.81 µg/L (methanol dosing 0.25 g/L), 21 days", "value": "40 and 59 and 60 and 34 and 57 and 62"}, {"measurement": "EA50 (effective chemical activity)", "setting": "Daphnia magna; EC50/subcooled liquid solubility, eq 1", "value": 0.026, "unit": "unitless"}, {"measurement": "Classification according to REACH Annex XIII", "setting": "Daphnia magna; chronic EC10 < 10 μg L^–1", "value": "toxic to aquatic life"}, {"measurement": "CTLBB (critical target lipid body burden)", "setting": "Daphnia magna; derived from chronic EC10 using eq 3", "value": 0.8, "unit": "μmol g^-1 octanol"}, {"measurement": "wet weight of parent daphnids, change relative to control", "setting": "Daphnia magna; 0.07 µg/L (Fig. S9)", "value": -11, "unit": "%"}, {"measurement": "wet weight of parent daphnids, change relative to control", "setting": "Daphnia magna; 0.25 µg/L (Fig. S9)", "value": -19, "unit": "%"}, {"measurement": "wet weight of parent daphnids, change relative to control", "setting": "Daphnia magna; 0.38 µg/L (Fig. S9)", "value": -17, "unit": "%"}, {"measurement": "wet weight of parent daphnids, change relative to control", "setting": "Daphnia magna; 0.81 µg/L (Fig. S9)", "value": -3, "unit": "%"}, {"measurement": "wet weight of parent daphnids, change relative to control", "setting": "Daphnia magna; 1.94 µg/L (Fig. S9)", "value": "+13%"}, {"measurement": "wet weight of parent daphnids, change relative to control", "setting": "Daphnia magna; 4.63 µg/L (Fig. S9)", "value": -24, "unit": "%"}, {"measurement": "% inhibition, avr.", "setting": "Daphnia magna; 0.07 µg/L, 21 days", "value": 1.3, "unit": "%"}, {"measurement": "% inhibition (per vessel)", "setting": "Daphnia magna; 0.07 µg/L, 21 days", "value": "-3.4% and -4.9% and -1.9% and 15.8% and 1.0%"}, {"measurement": "% inhibition, avr.", "setting": "Daphnia magna; 0.25 µg/L, 21 days", "value": 1.3, "unit": "%"}, {"measurement": "% inhibition (per vessel)", "setting": "Daphnia magna; 0.25 µg/L, 21 days", "value": "-19.6% and -7.8% and 14.3% and 5.5% and 9.9%"}, {"measurement": "% inhibition, avr.", "setting": "Daphnia magna; 0.38 µg/L, 21 days", "value": 8.7, "unit": "%"}, {"measurement": "% inhibition (per vessel)", "setting": "Daphnia magna; 0.38 µg/L, 21 days", "value": "2.5% and 18.8% and -21.1% and 20.2% and 23.2%"}, {"measurement": "% inhibition, avr.", "setting": "Daphnia magna; 0.81 µg/L, 21 days", "value": 23.2, "unit": "%"}, {"measurement": "% inhibition (per vessel)", "setting": "Daphnia magna; 0.81 µg/L, 21 days", "value": "40.9% and 12.9% and 11.4% and 49.8% and 15.8% and 8.4%"}, {"measurement": "RQ (EC/PNEC)", "setting": "D. magna [2]", "value": 3333}, {"measurement": "SW (water solubility)", "setting": "[3]; measured in previous work", "value": 0.026, "unit": "µg/mL"}, {"measurement": "log KOW", "setting": "[3]; n-octanol-water partition coefficient", "value": 5.75}, {"measurement": "log KOC", "setting": "[3]; organic carbon-water partition coefficient", "value": 5.50}, {"measurement": "effect on D. magna immobilization", "setting": "D. magna [4]", "value": 35, "unit": "%"}]}
